Assay [1] concerns SEQ ID NO:100 expression in HMVECdNeos. Kind of assay: Microarray expression analysis of HMVECdNeos treated with TNF-α versus untreated cells. Type of assay: cell-based, human. To be noted: HMVECdNeos at 85% confluence treated 1, 2, 4, 8, and 24 hours with TNF-α, versus untreated (0 hour). As to the method: (§1) Total RNA is isolated from tissue samples using the guanidinium thiocyanate method and poly(A)^+ RNA is purified using the oligo-(dT) cellulose method. Each poly(A)^+ RNA sample is reverse transcribed using MMLV reverse-transcriptase, 0.05 pg/μl oligo-(dT) primer (21mer), 1× first strand buffer, 0.03 units/μl RNase inhibitor, 500 μM dATP, 500 μM dGTP, 500 μM dTTP, 40 μM dCTP, 40 μM dCTP-Cy3 (BDS) or dCTP-Cy5 (Amersham Biosciences). The reverse transcription reaction is performed in a […] containing 200 ng poly(A)^+ RNA with GEMBRIGHT kits (Incyte Genomics). Specific control poly(A)^+ RNAs are synthesized by in vitro transcription from non-coding yeast genomic DNA. […]
(§2) Sequences of the present invention are used to generate array elements. […] Array elements are amplified in thirty cycles of PCR from an initial quantity of 1-2 ng to a final quantity greater than 5 μg. […]
(§3) Reporter-labeled hybridization complexes are detected with a microscope equipped with an Innova 70 mixed gas 10 W laser (Coherent, Inc., Santa Clara Calif.) capable of generating spectral lines at 488 nm for excitation of Cy3 and at 632 nm for excitation of Cy5. […]
(§4) A grid is superimposed over the fluorescence signal image such that the signal from each spot is centered in each element of the grid. […]

Assay [2] relates to SEQ ID NO:108 expression in HMVECdNeo cells. Kind of assay: Microarray RNA expression of HMVECdNeo cells treated with TNF-α versus untreated cells. It is filed as cell-based, human. To be noted: TNF-α 10 ng/ml for 2, 4, 8, and 24 hours, result at the last three time points, versus untreated (0 hour). As to the method: as §1, §2, §3, §4

This is an account of results in patent US20050186569A1, “Nucleic acid-associated proteins” (priority 2001, published 2005).

Consider TNF-α, for which the “expression of SEQ ID NO:100” value in assay [1] is “decreased expression”. For the same substance, the “expression of SEQ ID NO:108 (underexpressed)” value in assay [2] is listed as “at least two-fold”.
